Values of other authors in EP1541129A1, “Pharmaceutical effervescent formulation comprising amoxycillin and clavulanic acid” (Cimex AG, priority 2003, dated 2005).

Conditions: freely water-soluble

O=C(O)[C@H]1/C(=C/CO)O[C@@H]2CC(=O)N21 [Potassium clavulanate, potassium clavulanate]
solubility in water: about 1 part of water for 1 part of solute
